Measurements reported in ChEMBL document CHEMBL3745645, “Synthesis, in vitro antitumor activity, dihydrofolate reductase inhibition, DNA intercalation and structure-activity relationship studies of 1,3,5-triazine analogues” (Bioorg Med Chem Lett, 2016).
Active and inactive are the calls of the source. The rule behind the calls is not given here.

Tests used:
Format in all cases: functional
CAKI-1 = test: Cytotoxicity against human Caki1 cells at 10 uM after 48 hrs by SRB assay
RXF 393 = test: Cytotoxicity against human RXF393 cells at 10 uM after 48 hrs by SRB assay
SN12C = test: Cytotoxicity against human SN12C cells at 10 uM after 48 hrs by SRB assay; settings: read-out: GI
TK-10 = test: Cytotoxicity against human TK10 cells at 10 uM after 48 hrs by SRB assay
[1] = Cytotoxicity against human UO31 cells at 10 uM after 48 hrs by SRB assay; settings: UO-31, 48 h, read-out: GI
[2] = Cytotoxicity against human DU145 cells at 10 uM after 48 hrs by SRB assay; settings: DU-145, 48 h, read-out: GI
MCF7 = test: Cytotoxicity against human MCF7 cells at 10 uM after 48 hrs by SRB assay; settings: MCF7, 48 h, read-out: GI
MDA-MB-231 = test: Cytotoxicity against human MDA-MB-231 cells at 10 uM after 48 hrs by SRB assay; settings: MDA-MB-231, 48 h, read-out: GI
[3] = Cytotoxicity against human Hs 578T cells at 10 uM after 48 hrs by SRB assay; settings: read-out: GI
BT-549 = test: Cytotoxicity against human BT549 cells at 10 uM after 48 hrs by SRB assay
T47D = test: Cytotoxicity against human T47D cells at 10 uM after 48 hrs by SRB assay; settings: read-out: GI
MDA-MB-468 = test: Cytotoxicity against human MDA-MB-468 cells at 10 uM after 48 hrs by SRB assay
CCRF-CEM = test: Cytotoxicity against human CCRF-CEM cells at 10 uM after 48 hrs by SRB assay; settings: read-out: GI
[4] = Cytotoxicity against human HL-60(TB) cells at 10 uM after 48 hrs by SRB assay; settings: HL-60, 48 h, read-out: GI
K562 = test: Cytotoxicity against human K562 cells at 10 uM after 48 hrs by SRB assay; settings: K562, 48 h, read-out: GI
[5] = Cytotoxicity against human MOLT4 cells at 10 uM after 48 hrs by SRB assay; settings: MOLT-4, 48 h, read-out: GI
[6] = Cytotoxicity against human RPMI8226 cells at 10 uM after 48 hrs by SRB assay; settings: RPMI-8226, 48 h, read-out: GI
SR = test: Cytotoxicity against human SR cells at 10 uM after 48 hrs by SRB assay; settings: read-out: GI
A549 = test: Cytotoxicity against human A549 cells at 10 uM after 48 hrs by SRB assay; settings: A549, 48 h, read-out: GI
[7] = Cytotoxicity against human HOP62 cells at 10 uM after 48 hrs by SRB assay; settings: HOP-62, 48 h, read-out: GI
[8] = Cytotoxicity against human HOP92 cells at 10 uM after 48 hrs by SRB assay; settings: HOP-92, 48 h, read-out: GI
NCI-H226 = test: Cytotoxicity against human NCI-H226 cells at 10 uM after 48 hrs by SRB assay; settings: NCI-H226, 48 h, read-out: GI
NCI-H322M = test: Cytotoxicity against human NCI-H322M cells at 10 uM after 48 hrs by SRB assay; settings: read-out: GI
NCI-H460 = test: Cytotoxicity against human NCI-H460 cells at 10 uM after 48 hrs by SRB assay; settings: NCI-H460, 48 h, read-out: GI
NCI-H522 = test: Cytotoxicity against human NCI-H522 cells at 10 uM after 48 hrs by SRB assay; settings: NCI-H522, 48 h, read-out: GI
[9] = Cytotoxicity against human COLO205 cells at 10 uM after 48 hrs by SRB assay; settings: COLO 205, 48 h, read-out: GI
HCC 2998 = test: Cytotoxicity against human HCC2998 cells at 10 uM after 48 hrs by SRB assay
[10] = Cytotoxicity against human HCT116 cells at 10 uM after 48 hrs by SRB assay; settings: HCT-116, 48 h, read-out: GI
[11] = Cytotoxicity against human HCT15 cells at 10 uM after 48 hrs by SRB assay; settings: HCT-15, 48 h, read-out: GI
HT-29 = test: Cytotoxicity against human HT-29 cells at 10 uM after 48 hrs by SRB assay; settings: HT-29, 48 h, read-out: GI
KM12 = test: Cytotoxicity against human KM12 cells at 10 uM after 48 hrs by SRB assay; settings: KM12, 48 h, read-out: GI
SW-620 = test: Cytotoxicity against human SW620 cells at 10 uM after 48 hrs by SRB assay
[12] = Cytotoxicity against human SF268 cells at 10 uM after 48 hrs by SRB assay; settings: SF-268, 48 h, read-out: GI
[13] = Cytotoxicity against human SF295 cells at 10 uM after 48 hrs by SRB assay; settings: SF-295, 48 h, read-out: GI
SF-539 = test: Cytotoxicity against human SF539 cells at 10 uM after 48 hrs by SRB assay
[14] = Cytotoxicity against human SNB19 cells at 10 uM after 48 hrs by SRB assay; settings: SNB-19, 48 h, read-out: GI
[15] = Cytotoxicity against human SNB75 cells at 10 uM after 48 hrs by SRB assay; settings: SNB-75, 48 h, read-out: GI
U-251 = test: Cytotoxicity against human U251 cells at 10 uM after 48 hrs by SRB assay; settings: U-251, 48 h, read-out: GI
[16] = Cytotoxicity against human LOXIMVI cells at 10 uM after 48 hrs by SRB assay; settings: LOX IMVI, read-out: GI
Malme-3M = test: Cytotoxicity against human MALME-3M cells at 10 uM after 48 hrs by SRB assay; settings: read-out: GI
M14 = test: Cytotoxicity against human M14 cells at 10 uM after 48 hrs by SRB assay; settings: M14, 48 h, read-out: GI
MDA-MB-435 = test: Cytotoxicity against human MDA-MB-435 cells at 10 uM after 48 hrs by SRB assay; settings: MDA-MB-435, 48 h, read-out: GI
SK-MEL-2 = test: Cytotoxicity against human SK-MEL-2 cells at 10 uM after 48 hrs by SRB assay
SK-MEL-28 = test: Cytotoxicity against human SK-MEL-28 cells at 10 uM after 48 hrs by SRB assay
SK-MEL-5 = test: Cytotoxicity against human SK-MEL-5 cells at 10 uM after 48 hrs by SRB assay; settings: SK-MEL-5, 48 h, read-out: GI
UACC-257 = test: Cytotoxicity against human UACC257 cells at 10 uM after 48 hrs by SRB assay
[17] = Cytotoxicity against human IGROV1 cells at 10 uM after 48 hrs by SRB assay; settings: IGROV-1, 48 h, read-out: GI
[18] = Cytotoxicity against human OVCAR3 cells at 10 uM after 48 hrs by SRB assay; settings: OVCAR-3, 48 h, read-out: GI
[19] = Cytotoxicity against human OVCAR4 cells at 10 uM after 48 hrs by SRB assay; settings: OVCAR-4, 48 h, read-out: GI
OVCAR-5 = test: Cytotoxicity against human OVCAR5 cells at 10 uM after 48 hrs by SRB assay
[20] = Cytotoxicity against human OVCAR8 cells at 10 uM after 48 hrs by SRB assay; settings: OVCAR-8, 48 h, read-out: GI
[21] = Cytotoxicity against human NCI-ADR-RES cells at 10 uM after 48 hrs by SRB assay; settings: read-out: GI
[22] = Cytotoxicity against human SKOV3 cells at 10 uM after 48 hrs by SRB assay; settings: SK-OV-3, 48 h, read-out: GI
786-0 = test: Cytotoxicity against human 786-0 cells at 10 uM after 48 hrs by SRB assay
A498 = test: Cytotoxicity against human A498 cells at 10 uM after 48 hrs by SRB assay; settings: A498, 48 h, read-out: GI
ACHN = test: Cytotoxicity against human ACHN cells at 10 uM after 48 hrs by SRB assay; settings: read-out: GI

In the case of `Cc1nc2cc(Nc3nc(Nc4ccc(F)cc4)nc(Nc4ncccn4)n3)ccc2n1Cc1ccccc1`, the “growth inhibition (GI)” value (CAKI-1) is reported as “inactive”, the “growth inhibition (GI)” value (RXF 393) is reported as “inactive” and the inhibition of growth at 10 µM (SN12C) is reported as 8.42%. For the same molecule, the “growth inhibition (GI)” value (TK-10) was “inactive”, the inhibition of growth at 10 µM [1] was 27% and the inhibition of growth at 10 µM [2] was 4.12%. The inhibition of growth at 10 µM (MCF7) was 20.1%, the inhibition of growth at 10 µM (MDA-MB-231) was 7.37% and the inhibition of growth at 10 µM [3] was 20.9%. The “growth inhibition (GI)” value (BT-549) was “inactive”, the inhibition of growth at 10 µM (T47D) was 25.1% and the “growth inhibition (GI)” value (MDA-MB-468) was “inactive”. The inhibition of growth at 10 µM (CCRF-CEM) was 63.2%, the inhibition of growth at 10 µM [4] was 30.1% and the inhibition of growth at 10 µM (K562) was 41.3%. The inhibition of growth at 10 µM [5] was 44.6%, the inhibition of growth at 10 µM [6] was 57.4% and the inhibition of growth at 10 µM (SR) was 51.6%. The inhibition of growth at 10 µM (A549) was 17.8%, the inhibition of growth at 10 µM [7] was 2.38% and the inhibition of growth at 10 µM [8] was 18.4%. For the same molecule, the inhibition of growth at 10 µM (NCI-H226) was 11.5%, the inhibition of growth at 10 µM (NCI-H322M) was 5.47% and the inhibition of growth at 10 µM (NCI-H460) was 5.2%. The inhibition of growth at 10 µM (NCI-H522) was 22.5%, the inhibition of growth at 10 µM [9] was 10.5% and the “growth inhibition (GI)” value (HCC 2998) was “inactive”. The inhibition of growth at 10 µM [10] was 15.8%, the inhibition of growth at 10 µM [11] was 12.7% and the inhibition of growth at 10 µM (HT-29) was 14.8%. For the same molecule, the inhibition of growth at 10 µM (KM12) was 11.6%, the “growth inhibition (GI)” value (SW-620) was “inactive” and the inhibition of growth at 10 µM [12] was 11.2%. The inhibition of growth at 10 µM [13] was 15.6%, the “growth inhibition (GI)” value (SF-539) was “inactive” and the inhibition of growth at 10 µM [14] was 7.38%. The inhibition of growth at 10 µM [15] was 15.6%, the inhibition of growth at 10 µM (U-251) was 13.2% and the inhibition of growth at 10 µM [16] was 3.01%. For the same molecule, the inhibition of growth at 10 µM (Malme-3M) was 7.94%, the inhibition of growth at 10 µM (M14) was 5.65% and the inhibition of growth at 10 µM (MDA-MB-435) was 9.24%. The “growth inhibition (GI)” value (SK-MEL-2) was “inactive”, the “growth inhibition (GI)” value (SK-MEL-28) was “inactive” and the inhibition of growth at 10 µM (SK-MEL-5) was 6.35%. For the same molecule, the “growth inhibition (GI)” value (UACC-257) was “inactive”, the inhibition of growth at 10 µM [17] was 24% and the inhibition of growth at 10 µM [18] was 9.64%. The inhibition of growth at 10 µM [19] was 20.2%, the “growth inhibition (GI)” value (OVCAR-5) was “inactive” and the inhibition of growth at 10 µM [20] was 8.83%. For the same molecule, the inhibition of growth at 10 µM [21] was 10.5%, the inhibition of growth at 10 µM [22] was 2.64% and the “growth inhibition (GI)” value (786-0) was “inactive”. The inhibition of growth at 10 µM (A498) was 11.5% and the inhibition of growth at 10 µM (ACHN) was 1.6%.
